# Columns and labels:
# GPx-1 [1] = details: through interacting with selenocystein by forming a stable gold-Sec complex; cited from earlier work
# From the text: Glutathione peroxidase-1 (GPx-1), a crucial antioxidant selenoenzyme in mammalian cells, is selected as a model drug target for tumor treatment. Suppression of intracellular GPx-1 activity induces the accumulation of hydrogen peroxide (reactive oxygen species, ROS), which would render tumor cells susceptible to ROS-induced apoptosis, [20].
# GPx-1 [2] = assay: GPx-1 enzyme activity suppression in buffer; type: biochemical, bovine; details: buffer, Au dose of 400 μM, 10 min, GPx Activity Colorimetric Assay Kit, NADPH absorbance at 340 nm
# From the text: The peptides (N2H-CCYGGPEEEEEVG-COOH (named P1), NH2-CCYGGPDDDEDVG-COOH (named P2) and NH2-CCYGGPEEVEEVG-COOH (named P3)) were chemically synthesized by a solid phase method (China Peptides Co. Ltd, Purity: 98%). Hydrogen tetrachloroaurate (III) (HAuCl4·4H2O) was purchased from Sinopharm Chemical Reagent Co. Ltd. Sodium hydroxide (NaOH), nitric acid (HNO3), hydrochloric acid (HCl) and hydrogen peroxide (H2O2) were purchased from Beijing Chemical Reagent Co., China. Human non-small cell lung carcinoma cells (A549 cells), Henrietta Lacks strain of cancer cells (Hela cells) and human colon adenocarcinoma cells (HCT-8 cells) were from Cancer Institute and Hospital, Chinese Academy of Medical Sciences. Fetal bovine serum (FBS) and trypsin-EDTA were obtained from Gibco, USA. Penicillin-streptomycin solution, cell culture medium DMEM and RPMI 1640 were purchased from Hyclone. Hoechst 33342, LysoTracker®Green DND-26, and CM-H2DCFDA were from Molecular Probes, USA. NucView™ 488 Caspase-3 Assay Kit was bought from Biotium, USA. 5,5′,6,6′-tetrachloro-1,1′,3,3′-tetraethylbenzimidazolocarbocyanine iodide (JC-1), cell lysis buffer for Western and IP, phenylmethanesulfonyl fluoride (PMSF) and BCA Protein Assay Kit were obtained from Beyotime Institute of Biotechnology, China. Protease inhibitor cocktail tablets were from Roche Diagnostics, GmbH, Mannheim, Germany. Cell counting kit-8 (CCK-8) reagents and Annexin V-FITC/Propidium (PI) Apoptosis Detection Kit were purchased from Dojindo Laboratories, Japan. GPx from bovine erythrocytes […] was provided by Sigma Aldrich, USA. GPx Activity Colorimetric Assay Kit was provided by Biovision, USA. Anti-GPx-1 antibody was offered by Abcam, UK. PARP antibody, caspase-3 antibody and β-actin antibody were offered by Cell Signaling Technology, USA. Amicon ultra centrifugal filter devices (Merck Millipore, MWCO: 10 kDa) were used for purification steps. Ultrapure Millipore (Mini-Q) water (18.2 MΩ) was used throughout the experiments. […]
# Pure GPx (lyophilized powder, ≥300 units/mg protein) were diluted by GPx sample buffer and incubated with peptide-Au clusters (Au25P1_9, Au25P2_9 and Au25P3_9) at a series of Au dose (0, 25, 100, 400 μM) for 10 min, respectively. […] The GPx activity of untreated samples was set as 100%, and that of peptide-Au clusters treated samples were expressed as a relative percentage of untreated ones.
# Figure S12. Peptide-Au clusters treated GPx-1 activity measured in buffer solution. The decrease in NADPH absorbance measured at 340 nm during the oxidation of NADPH to NADP is the indicative of GPx activity,^1, 2 which is in a dose dependent manner in tube experiments when treated with serial doses of peptide-Au clusters.
# A549 cells = assay: Cell viability assay (CCK-8), A549; type: cell-based, human; details: A549, Au dose of 800 μM, 48 h, CCK-8; mean from three independent experiments
# Experimental: Briefly, cells were prior cultured on 96-well plates (at the density of 5 × 10^3 cells/well) for 24 h to allow cells attachment. The cells were treated with different doses of these free peptides (0, 1, 4, 16, 64, 256, 1024 µM) and peptide-Au clusters (0, 50, 100, 200, 400, 800 µM in Au dose) for 48 h, respectively. The cells were washed three times with PBS and then incubated with fresh growth medium containing 10% (v/v) CCK-8 reagent for 1 h at 37 °C for cell viability assay. The absorbance was measured at 450 nm by using a microplate reader (SpectraMAX M2, Sunnyvale, California). Cell viability of untreated cells was set as 100%, and that of treated cells were expressed as a relative percentage of untreated cells. All data were shown as mean percentages ± standard deviation from three independent experiments.
Compound,inhibition of GPx-1 activity (GPx-1 [1]),GPx-1 activity (relative to untreated = 100%) (GPx-1 [2]),cell viability (relative to untreated = 100%) (A549 cells)
O=C(O)CC([S-])C(=O)O.[Au+] (stereo not drawn) [gold thiomalate],can inhibit GPx-1 activity,–,–
"CCYGGPDDDEDVG [Au25P2_9, Au25 cluster coated by nine P2 peptides (…)]",–,16%,53%
CC(=O)OC[C@H]1O[C@@H]([S-])[C@H](OC(C)=O)[C@@H](OC(C)=O)[C@@H]1OC(C)=O.CCP(CC)CC.[Au+] [auranofin],can inhibit GPx-1 activity,–,–
"CCYGGPEEVEEVG [Au25P3_9, Au25 cluster coated by nine P3 peptides (…)]",–,29%,71%

# Reference: PMC5428013, “Peptide-Au Clusters Induced Tumor Cells Apoptosis via Targeting Glutathione Peroxidase-1: The Molecular Dynamics Assisted Experimental Studies” (Scientific Reports, 2017)
